{
  "source": "patent US6362230B1",
  "about": "“Sulphonamide derivatives” (Eli Lilly and Company, priority 1998, dated 2002)",
  "biological_target": "T1, human GluR4B receptor (Homo sapiens, UniProt P48058)",
  "T1 construct": "expressed in transfected cells",
  "T1 sequence (P48058 21-902)": "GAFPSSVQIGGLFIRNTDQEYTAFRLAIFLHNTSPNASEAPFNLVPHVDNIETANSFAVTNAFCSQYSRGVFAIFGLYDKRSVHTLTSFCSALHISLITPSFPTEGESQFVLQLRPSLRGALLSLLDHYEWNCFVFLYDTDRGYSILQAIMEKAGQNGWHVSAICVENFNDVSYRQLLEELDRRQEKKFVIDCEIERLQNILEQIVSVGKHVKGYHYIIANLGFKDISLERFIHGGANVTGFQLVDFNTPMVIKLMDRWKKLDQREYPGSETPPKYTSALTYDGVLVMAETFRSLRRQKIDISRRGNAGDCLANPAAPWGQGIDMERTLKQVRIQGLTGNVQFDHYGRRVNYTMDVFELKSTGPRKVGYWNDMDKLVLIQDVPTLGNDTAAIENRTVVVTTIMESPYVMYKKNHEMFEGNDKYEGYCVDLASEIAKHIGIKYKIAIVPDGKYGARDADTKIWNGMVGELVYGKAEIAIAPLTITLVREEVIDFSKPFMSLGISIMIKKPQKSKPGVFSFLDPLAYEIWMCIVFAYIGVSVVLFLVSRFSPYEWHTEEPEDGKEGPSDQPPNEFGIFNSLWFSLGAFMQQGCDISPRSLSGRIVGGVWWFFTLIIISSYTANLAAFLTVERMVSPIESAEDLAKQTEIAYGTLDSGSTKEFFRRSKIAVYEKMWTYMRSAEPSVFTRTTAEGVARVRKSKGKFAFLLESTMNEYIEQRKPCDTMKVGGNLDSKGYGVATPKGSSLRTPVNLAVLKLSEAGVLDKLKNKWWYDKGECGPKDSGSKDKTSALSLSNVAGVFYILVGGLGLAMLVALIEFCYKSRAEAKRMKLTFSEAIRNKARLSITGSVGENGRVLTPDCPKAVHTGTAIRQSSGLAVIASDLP",
  "assay": "potentiation of agonist-induced excitability of human GluR4B receptor expressed in HEK 293 cells",
  "assay_type": "cell-based",
  "description": "The ability of compounds of formula I or formula XVII to potentiate glutamate receptor-mediated response may be determined using fluorescent calcium indicator dyes (Molecular Probes, Eugene, Oreg., Fluo-3) and by measuring glutamate-evoked […] of calcium into GluR4 transfected HEK293 cells, as described in more detail below.\nIn one test, 96 well plates containing confluent monolayers of HEK cells stably expressing human GluR4B (obtained as described in European Patent Application Publication Number EP-A1-583917) are prepared. The tissue culture medium in the wells is then discarded, and the wells are each washed once with 200 μl of buffer (glucose, 10 mM, sodium chloride, 138 mM, magnesium chloride, 1 mM, potassium chloride, 5 mM, calcium chloride, 5 mM, N-[2-hydroxyethyl]piperazine-N-[2-ethanesulfonic acid], 10 mM, to pH 7.1 to 7.3). […]\nEach test is then performed as follows. […] A second fluorescent reading is taken after 5 minutes incubation. 15 μl of 400 μM glutamate solution is then added to each well (final glutamate concentration 100 μM), and a third reading is taken. The activities of test compounds and cyclothiazide solutions are determined by subtracting the second from the third reading (fluorescence due to addition of glutamate in the presence or absence of test compound or cyclothiazide) and are expressed relative to enhance fluorescence produced by 100 μM cyclothiazide.",
  "data": [
    {"molecule": "NS(=O)(=O)c1cc2c(cc1Cl)NC(C1CC3C=CC1C3)NS2(=O)=O", "note": "(stereo not shown) [cyclothiazide]", "values": [
      {"measurement": "potentiation of agonist-induced excitability of human GluR4B receptor", "value": "potentiate agonist-induced excitability"}
    ]}
  ]
}
